Results reported in ChEMBL document CHEMBL3430912, “GSK Tres Cantos Anti-Kinetoplastid Screening (TCAKS) Data”.

Tests used:
[1] = test system: Trypanosoma cruzi; experiment: GSK_TCAKS: pIC50 Trypanosoma cruzi viability assay using beta-GAL activity. This assay was run at single shot at 5uM compound concentration per well. The biological reagents consisted of NIH-3T3 host cells and trypomastigotes parasitic cells; both cell types were set to a 3.3 * 10^5 cells/mL dilution in assay DMEM by means of a CASY cell counter device using a 60um capillary. 6 uL of the mixture were dispensed per well (about 1 * 10^3 host-cells and 1 * 10^3 parasites) with a Multidrop Combi dispenser. […] In all wells, the percentage of DMSO never exceeded 0.5%. Plates incubated for four days at 37C, 5% CO2. The substrate used for the assay fluorescence intensity (FLINT) readout was resorufin-beta-D-galactopiranoside (Sigma-Aldrich) at 5uM per well. It was diluted in PBS supplemented with the soft detergent Igepal (Fluka).; type: functional, organism-based, Mus musculus; conditions: Tulahuen, NIH3T3
[2] = test system: Leishmania donovani; experiment: GSK_TCAKS: pIC50 Leishmania donovani Imaging: THP-1 Host Macrophages. Assay plates (384-well) were prepared by adding 250nL of compound to each well. For single shot assay, the final compound concentration was 5 uM. […] Automated image analysis was performed with a script developed on Acapella High Content Imaging and Analysis Software (PerkinElmer). Output: THP-1 cell count were reported for each well.; type: functional, organism-based, Homo sapiens
[3] = test system: Leishmania donovani; experiment: GSK_TCAKS: pIC50 Leishmania donovani Imaging: Infected Macrophages. Assay plates (384-well) were prepared by adding 250nL of compound to each well. For single shot assay, the final compound concentration was 5 uM. […] Automated image analysis was performed with a script developed on Acapella High Content Imaging and Analysis Software (PerkinElmer). Output: Percent of infected macrophage cells were reported for each well.; type: functional, organism-based, Homo sapiens; conditions: THP-1
[4] = test system: NIH3T3; experiment: GSK_TCAKS: pIC50 NIH 3T3 cell line viability assay using luminiscence. Tissue culture surface treated assay plates (1536-well) were used. […] The 100% cells survival control was determined exposing the host-cells to a 0.5% DMSO concentration, whereas the 100% toxicity control was achieved by seeding the cells in presence of Amphotericin B at 50uM. Plates were incubated for four days at 37C, 5% CO2. The assay readout was developed by addition of 5uL of CellTiter-Glo Reagent following the manufacturer's instructions. Luminiscence was measured using a ViewLux.; type: functional, cell-based; conditions: Mus musculus, NIH3T3, 96 h
[5] = test system: Leishmania donovani; experiment: GSK_TCAKS: pIC50 Leishmania donovani Imaging: Amastigotes/Macrophages. Assay plates (384-well) were prepared by adding 250nL of compound to each well. For single shot assay, the final compound concentration was 5 uM. […] Automated image analysis was performed with a script developed on Acapella High Content Imaging and Analysis Software (PerkinElmer). Output: Average number of amastigotes per macrophage cell were reported for each well.; type: functional, organism-based, Homo sapiens; conditions: THP-1
[6] = test system: Leishmania donovani; experiment: GSK_TCAKS: pIC50 Leishmania donovani viability assay using fluorescence intensity. Assay plates (1536-well) were prepared by adding 30nL per well of compound. For single shot assay, the final compound concentration was 5uM. […] Briefly, eGFP LdBOB axenic amastigotes were harvested, fixed and counted in a CASY cell counter (Roche-Applied Science). A final concentration of 1.5 * 10^5 cells per well were prepared in amastigote media containing 500 U/mL penicillin/streptomycin (Invitrogen) and 6uL was dispensed to each experimental well using a Multidrop Combi dispenser (Thermo Scientific). 6uL of assay media was dispensed to control columns used as reference for 100% compound response. Following incubation for 72 h at 37C, 5% CO2, 2 uL of resazurin was added to each well at a final concentration of 0.5 mM in phosphate buffered saline (PBS) with IGEPAL (Sigma-Aldrich), 0.05% (v/v).; type: functional, organism-based
[7] = test system: Trypanosoma cruzi; experiment: (§1) GSK_TCAKS: pIC50 H2C9 Imaging: H9c2 Host Cardiomyocytes. […] Cells were then washed once with PBS before infection. T. cruzi trypomastigotes, collected at days 5 to 8 after infection from LLC-MK2 parasite infected cultures, were allowed to swim out for 4h at 37C from a centrifuged pellet (2,500 rpm/10 min/room temperature). Trypomastigotes were then collected and counted in a CASY Cell Counter. Trypomastigotes, in supplemented DMEM, were added to H9c2 cultures in a multiplicity of infection of 1 and incubated for 18 h. Cells were washed once with PBS before incubation of the infected H9c2 monolayer with trypsin (Life-Technologies) to detach cells from the flask. Cells were counted in a CASY Cell Counter using a 150 um capillary and their density set at 5 * 10^4 cells per mL in supplemented assay DMEM. Infected H9c2 were dispensed into 384-well poly-lysine coated assay plates at 50uL per well using a Multidrop Combi dispenser. After seeding them, the plates were incubated at 37C, 5% CO2 for 72h. Cultures were then fixed and stained by addition of 50 uL of a solution containing 8% formaldehyde and 4 uM DRAQ5 DNA dye (BioStatus, UK) per well. […] Five images were collected per well for reliable statistical analysis. Automated image analysis was performed with a script developed on Acapella High Content Imaging and Analysis Software (PerkinElmer). Output: Number of H9c2 Host Cardiomyocytes nuclei to determine drug-related cytotoxicity.; type: functional, organism-based, Rattus norvegicus; conditions: H9c2, 4 h
[8] = test system: Trypanosoma brucei brucei; experiment: GSK_TCAKS: pIC50 Trypanosoma brucei viability assay using fluorescence intensity. Assay plates (1536-well) were prepared by dispensing 25nL of compound solution per well using an Echo acoustic dispenser (Labcyte).; type: functional, organism-based; conditions: Lister 427, 2 h
[9] = test system: Trypanosoma brucei brucei; experiment: GSK_TCAKS: pIC50 Trypanosoma brucei viability assay using luminiscence. Assay plates (1536-well) were prepared. T. brucei cultures were harvested and counted in a CASY cell counter. A parasite suspension was prepared at a final concentration of 5 * 10^4 cells/mL in complete HMI9 medium and 6uL was dispensed to all wells containing compounds using a Multidrop Combi dispenser. 6uL of HMI9 media with 0.4% DMSO were dispensed to control columns. Plates were incubated for 24 h at 37C, 5% CO2 then tempered for 10 min at room temperature. ATP content was quantified by adding 4 uL of CellTiter-Glo Reagent (Promega) according to the manufacturer's instructions. Luminescence was measured using a ViewLux.; type: functional, organism-based; conditions: Lister 427, CASY
[10] = biological target: Sterol 14-alpha demethylase (Trypanosoma cruzi (strain CL Brener), UniProt Q7Z1V1); experiment: GSK_TCAKS: pIC50 CYP51 from Trypanosoma cruzi.; type: functional
Chain of Sterol 14-alpha demethylase (Q7Z1V1 whole entry): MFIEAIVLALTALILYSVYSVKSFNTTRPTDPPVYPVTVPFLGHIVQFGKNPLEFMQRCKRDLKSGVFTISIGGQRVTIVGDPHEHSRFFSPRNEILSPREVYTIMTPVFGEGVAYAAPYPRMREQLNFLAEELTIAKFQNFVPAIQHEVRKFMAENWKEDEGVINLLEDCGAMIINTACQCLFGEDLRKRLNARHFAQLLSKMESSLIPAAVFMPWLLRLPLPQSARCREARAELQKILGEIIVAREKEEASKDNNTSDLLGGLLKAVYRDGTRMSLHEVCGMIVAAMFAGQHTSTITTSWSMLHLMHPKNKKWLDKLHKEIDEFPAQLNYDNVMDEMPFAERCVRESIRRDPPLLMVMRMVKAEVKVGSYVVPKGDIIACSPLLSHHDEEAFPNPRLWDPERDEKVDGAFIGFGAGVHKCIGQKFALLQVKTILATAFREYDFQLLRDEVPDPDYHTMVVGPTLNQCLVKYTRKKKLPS

[11] = GSK_TCAKS: pIC50 HepG2 human cell line viability assay using luminiscence. […] Seeding density was checked to ensure that new mono-layers were not more than 50% confluent at the time of harvesting. Cell suspension was added to 500 mL of the same medium at a final density of 1.2 * 10^5 cells/mL. This cell suspension was dispensed (25 uL, 3000 cells per well) into 384-well clear-bottom plates using a Multidrop Combi dispenser. Prior to addition of the cell suspension, the screening compounds (250 nL) were pre-dispensed into the plates with an Echo liquid handler. Plates were incubated for 48 h at 37C, 5% CO2. After incubation, plates equilibrated at room temperature for 30 min before proceeding to develop the luminescent signal. The signal developer, CellTiter-Glo Reagent, was allowed to equilibrate at room temperature for 30 min and added to the plates (25uL per well) using a Multidrop Combi dispenser. Plates were left for 10 min at room temperature for stabilization and then read using a ViewLux.; type: toxicity, cell-based
[12] = test system: Trypanosoma cruzi; experiment: as §1, with “Trypanosoma cruzi” for “H2C9”, “Amastigotes/Cell.” for “H9c2 Host Cardiomyocytes.”, “number” for “Number”, “amastigotes per cell as infection level measurement.” for “H9c2 Host Cardiomyocytes nuclei to determine drug-related cytotoxicity.”; type: functional, organism-based, Rattus norvegicus; conditions: H9c2, 4 h
[13] = test system: Trypanosoma cruzi; experiment: as §1, with “Trypanosoma cruzi” for “H2C9”, “Infected Cells.” for “H9c2 Host Cardiomyocytes.”, “percentage” for “Number”, “infected cells per well as a second infection marker.” for “H9c2 Host Cardiomyocytes nuclei to determine drug-related cytotoxicity.”; type: functional, organism-based, Rattus norvegicus; conditions: H9c2, 4 h

SMILES	IC50 [1]	IC50 [2]	IC50 [3]	IC50 [4]	IC50 [5]	IC50 [6]	IC50 [7]	IC50 [8]	IC50 [9]	IC50 [10]	IC50 at 48 h [11]	IC50 [12]	IC50 [13]
O=C(COc1ncnc2cc([N+](=O)[O-])ccc12)NC(=O)NC1CCCCC1	1.26 µM	> 50.1 µM	> 50.1 µM	> 50.1 µM	> 50.1 µM	> 50.1 µM	> 50.1 µM	6.31 µM	> 39.8 µM	> 100 µM	> 100 µM	0.501 µM	1 µM
O=C(NC(c1ccc(Cl)cc1)c1cnccn1)C1CCN(C(=O)Nc2cccc(C(F)(F)F)c2)CC1 (stereo not given)	0.631 µM	39.8 µM	> 50.1 µM	39.8 µM	> 50.1 µM	20 µM	> 50.1 µM	12.6 µM	6.31 µM	0.126 µM	> 100 µM	0.501 µM	0.631 µM
c1ccc2c(CCOc3nccnc3-c3ccncc3)c[nH]c2c1	0.141 µM	20 µM	> 50.1 µM	20 µM	20 µM	5.01 µM	> 50.1 µM	31.6 µM	39.8 µM	0.0631 µM	> 100 µM	0.158 µM	0.158 µM
O=C(Nc1ccc(Br)c(Cl)c1)Nc1ccc2c(c1)OCO2	2.51 µM	> 50.1 µM	> 50.1 µM	15.8 µM	> 50.1 µM	> 50.1 µM	> 50.1 µM	7.94 µM	12.6 µM	> 100 µM	> 100 µM	2 µM	5.01 µM
Clc1cc(Br)ccc1OCCCCn1ccnc1	0.631 µM	31.6 µM	25.1 µM	15.8 µM	6.31 µM	0.126 µM	25.1 µM	10 µM	20 µM	0.0631 µM	50.1 µM	0.316 µM	0.251 µM
COc1cccc(C(=O)[C@H]2C[C@@H]2CN(Cc2cccnc2)Cc2cccnc2)c1	0.1 µM	39.8 µM	> 50.1 µM	20 µM	7.94 µM	0.158 µM	> 50.1 µM	31.6 µM	> 39.8 µM	0.0631 µM	> 100 µM	0.0501 µM	0.0631 µM
NC(=O)c1ccc(-c2cccc(OCCN3CCN(C4CCCCC4)CC3)c2)cc1	1.58 µM	31.6 µM	50.1 µM	15.8 µM	10 µM	> 50.1 µM	> 50.1 µM	15.8 µM	15.8 µM	39.8 µM	50.1 µM	0.794 µM	1.58 µM
CCCC(=O)N(Cc1ccccn1)c1nc2ccccc2s1	0.126 µM	> 50.1 µM	> 50.1 µM	> 50.1 µM	10 µM	7.94 µM	> 50.1 µM	20 µM	> 39.8 µM	0.0501 µM	> 100 µM	0.0794 µM	0.1 µM
O=[N+]([O-])c1ccc(C2=NCCNC(c3ccccc3)=C2)cc1.[O-][Cl+3]([O-])([O-])O	0.501 µM	39.8 µM	20 µM	7.94 µM	7.94 µM	> 50.1 µM	31.6 µM	6.31 µM	> 12.6 µM	50.1 µM	50.1 µM	0.251 µM	1 µM
Clc1ccc(Sc2cnccc2N2CCOCC2)cc1	0.141 µM	> 50.1 µM	> 50.1 µM	> 50.1 µM	10 µM	7.94 µM	> 50.1 µM	25.1 µM	> 39.8 µM	0.0316 µM	> 100 µM	0.1 µM	0.126 µM
